Data: ChEMBL document CHEMBL1201862, “PubChem BioAssay data set” (2004)
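Where inhibition never reached the appropriate level, the endpoint shown equals the highest concentration tested. Otherwise, values were interpolated linearly from a five-concentration, 48-hour dose response in 96-well plates. GI50 = concentration required for 50% inhibition of growth.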 Active and inactive are the calls of the source. No stated cut-off is given here; in the data, active = GI50 up to about 1.1 µM and inactive = higher.

Columns and labels:
Assay in all cases: NCI tumour cell line growth inhibition, 48 h
CCRF-CEM = system: CCRF-CEM
COLO 205 = system: COLO 205
EKVX = system: EKVX
HCT-15 = system: HCT-15
HT-29 = system: HT-29
IGROV-1 = system: IGROV-1
KM12 = system: KM12
MOLT-4 = system: MOLT-4
NCI-H23 = system: NCI-H23
NCI-H522 = system: NCI-H522
OVCAR-8 = system: OVCAR-8
PC-3 = system: PC-3
SF-295 = system: SF-295
SK-MEL-28 = system: SK-MEL-28
SK-MEL-2 = system: SK-MEL-2
SK-OV-3 = system: SK-OV-3
HOP-92 = system: HOP-92
SN12C = system: SN12C

Row | Structure (SMILES) | GI50 (CCRF-CEM) | GI50 (COLO 205) | GI50 (EKVX) | GI50 (HCT-15) | GI50 (HT-29) | GI50 (IGROV-1) | GI50 (KM12) | GI50 (MOLT-4) | GI50 (NCI-H23) | GI50 (NCI-H522) | GI50 (OVCAR-8) | GI50 (PC-3) | GI50 (SF-295) | GI50 (SK-MEL-28) | GI50 (SK-MEL-2) | GI50 (SK-OV-3) | GI50 (HOP-92) | GI50 (SN12C)
1 | O=c1oc2ccc3ccccc3c2cc1-c1nnc(-c2ccc([N+](=O)[O-])cc2)[nH]1 | > 100 µM (inactive) | > 100 µM (inactive) | 20.7 µM (inactive) | > 100 µM | > 100 µM (inactive) | 0.184 µM (active) | > 100 µM (inactive) | 71.4 µM (inactive) | 17.7 µM (inactive) | 92 µM (inactive) | 21.4 µM (inactive) | > 100 µM (inactive) | 36.6 µM (inactive) | > 100 µM (inactive) | 44.6 µM (inactive) | 23.6 µM (inactive) | – | –
2 | COC(=O)C1CC/C(=N\c2cccc(C(F)(F)F)c2)N1 (configuration not stated) | > 100 µM (inactive) | > 100 µM (inactive) | > 100 µM (inactive) | > 100 µM | > 100 µM (inactive) | > 100 µM (inactive) | > 100 µM (inactive) | > 100 µM (inactive) | > 100 µM (inactive) | > 100 µM (inactive) | > 100 µM (inactive) | – | > 100 µM (inactive) | > 100 µM (inactive) | > 100 µM (inactive) | > 100 µM (inactive) | > 100 µM (inactive) | > 100 µM (inactive)
3 | CCOC(=O)/C(=C/c1ccc(C(F)(F)F)cc1)N(CC)CC | > 100 µM (inactive) | > 100 µM (inactive) | > 100 µM (inactive) | 40.6 µM | > 100 µM (inactive) | 47.8 µM (inactive) | 44.4 µM (inactive) | 96.4 µM (inactive) | 37.3 µM (inactive) | 31.6 µM (inactive) | 56 µM (inactive) | – | 84.7 µM (inactive) | > 100 µM (inactive) | 25.7 µM (inactive) | 66.4 µM (inactive) | 17.5 µM (inactive) | 53.3 µM (inactive)
4 | CN1C(=O)C(O)CC1c1ccccc1F (configuration not stated) | > 100 µM (inactive) | > 100 µM (inactive) | > 100 µM (inactive) | > 100 µM | > 100 µM (inactive) | > 100 µM (inactive) | > 100 µM (inactive) | > 100 µM (inactive) | > 100 µM (inactive) | > 100 µM (inactive) | > 100 µM (inactive) | > 100 µM (inactive) | > 100 µM (inactive) | > 100 µM (inactive) | > 100 µM (inactive) | – | > 100 µM (inactive) | > 100 µM (inactive)
5 | Nc1nc(Cl)c(/C=N\O)c(NCC2(CO)CC(=O)C2)n1 | 41.7 µM (inactive) | > 100 µM (inactive) | > 100 µM (inactive) | > 100 µM | 80 µM (inactive) | 23.2 µM (inactive) | 24.5 µM (inactive) | 31.8 µM (inactive) | 36.4 µM (inactive) | 68.7 µM (inactive) | > 100 µM (inactive) | 80.2 µM (inactive) | 56 µM (inactive) | > 100 µM (inactive) | – | – | 40.8 µM (inactive) | > 100 µM (inactive)
6 | O=C(ON=c1c2ccccc2ccc2ccccc12)c1cc([N+](=O)[O-])cc([N+](=O)[O-])c1 | 25.5 µM (inactive) | > 100 µM (inactive) | 89.9 µM (inactive) | 53 µM | 94.4 µM (inactive) | > 100 µM (inactive) | 49 µM (inactive) | 31.8 µM (inactive) | > 100 µM (inactive) | – | 94.8 µM (inactive) | 41.8 µM (inactive) | 43.8 µM (inactive) | > 100 µM (inactive) | > 100 µM (inactive) | > 100 µM (inactive) | 23.1 µM (inactive) | 67.1 µM (inactive)
7 | CCOC1NC(/N=C/c2ccc(OC)cc2)=C(C#N)C1C#N (configuration not stated) | 26.7 µM (inactive) | 75.3 µM (inactive) | 92 µM (inactive) | 99.3 µM | > 100 µM (inactive) | > 100 µM (inactive) | 64.6 µM (inactive) | 92 µM (inactive) | 46 µM (inactive) | 19.3 µM (inactive) | > 100 µM (inactive) | 46 µM (inactive) | > 100 µM (inactive) | > 100 µM (inactive) | 29.9 µM (inactive) | 80.4 µM (inactive) | – | > 100 µM (inactive)
